Results from patent publication US10538554B2, “Peptides and uses therefor as antiviral agents” (priority 2015, dated 2020).
Bridge positions count the residues as written; N and C are the ends. Square brackets hold non-standard residues; d marks the D form. Peptide text beside a SMILES is read from it.

System: H1N1 A/PR/8-MC/1934
Set-up: species or system BALB/c female mice
Details: mouse, in vivo

CC[C@@H](C)[C@H]1NC(=O)[C@@H](Cc2ccccc2)NC(=O)[C@@H]([C@H](C)O)NC(=O)[C@@H](Cc2ccccc2)NC(=O)[C@@H](Cc2c[nH]c3ccccc23)NC(=O)[C@@H]([C@H](C)O)NC(=O)[C@H](NC(=O)[C@H](CCCCN)NC(=O)[C@H](CCCCN)NC(=O)[C@H](CCCNC(=N)N)NC(=O)[C@@H](N)CCCNC(=N)N)CSSC[C@H](C(=O)O)NC(=O)[C@@H](CC(N)=O)NC1=O [PSP IV A17, H-RRKKctwftfinc-OH] (H-RRKK[dC][dT][dW][dF][dT][dF][dI][dN][dC]-OH; disulfide 5-13)
morbidity of influenza infected mice: completely inhibited the morbidity
